The target in one assay is T1, Zcchc11 enzyme (Homo sapiens, UniProt Q5TAX3).
T1 construct: made in house; host or cells: HEK293 cells (Zcchc11); E. coli Rosetta II (LIN28A)
T1 sequence (Q5TAX3 212-1420): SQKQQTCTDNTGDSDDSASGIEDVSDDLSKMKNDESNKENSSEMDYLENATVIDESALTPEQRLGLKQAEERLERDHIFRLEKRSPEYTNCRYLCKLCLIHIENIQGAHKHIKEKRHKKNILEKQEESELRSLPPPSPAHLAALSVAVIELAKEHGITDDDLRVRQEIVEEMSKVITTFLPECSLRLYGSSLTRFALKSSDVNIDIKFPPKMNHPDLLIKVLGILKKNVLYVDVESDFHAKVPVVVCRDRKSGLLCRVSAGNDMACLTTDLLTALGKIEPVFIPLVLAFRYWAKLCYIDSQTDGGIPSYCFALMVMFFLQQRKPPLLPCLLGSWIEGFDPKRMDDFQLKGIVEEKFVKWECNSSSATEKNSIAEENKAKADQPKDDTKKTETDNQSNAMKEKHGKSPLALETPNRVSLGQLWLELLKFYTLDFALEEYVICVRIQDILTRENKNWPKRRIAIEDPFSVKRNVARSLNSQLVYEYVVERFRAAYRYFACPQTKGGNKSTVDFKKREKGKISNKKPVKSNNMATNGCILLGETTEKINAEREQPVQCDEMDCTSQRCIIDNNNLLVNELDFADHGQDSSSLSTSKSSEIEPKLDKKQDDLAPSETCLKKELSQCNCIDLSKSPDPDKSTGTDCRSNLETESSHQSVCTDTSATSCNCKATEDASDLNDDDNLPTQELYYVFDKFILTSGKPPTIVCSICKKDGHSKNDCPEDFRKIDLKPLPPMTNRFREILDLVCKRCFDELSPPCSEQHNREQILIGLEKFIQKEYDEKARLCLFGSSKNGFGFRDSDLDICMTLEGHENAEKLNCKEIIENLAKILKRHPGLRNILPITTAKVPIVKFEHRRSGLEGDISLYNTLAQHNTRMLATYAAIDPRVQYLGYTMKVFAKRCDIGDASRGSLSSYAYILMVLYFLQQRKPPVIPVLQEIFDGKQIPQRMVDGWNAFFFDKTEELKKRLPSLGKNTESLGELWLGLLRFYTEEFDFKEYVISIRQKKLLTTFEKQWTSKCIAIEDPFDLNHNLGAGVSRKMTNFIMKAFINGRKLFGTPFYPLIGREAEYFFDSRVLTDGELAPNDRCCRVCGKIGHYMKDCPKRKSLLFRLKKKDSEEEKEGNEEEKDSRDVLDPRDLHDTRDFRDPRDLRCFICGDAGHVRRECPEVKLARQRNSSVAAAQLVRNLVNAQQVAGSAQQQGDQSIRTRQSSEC
In words: TUTase assay (Zcchc11 assay, Lin28a-dependent polyuridylation of pre-let-7). The class given is biochemical. As to conditions: LIN28A 10 nM, Zcchc11 0.2 nM, 5′-fluorescein pre-let-7 miRNA 2 nM, UTP 5 uM, room temperature, 30 minutes pre-incubation; read-out: Potency Lin28a-dep Z11 IC50. In outline:
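Readout: time-dependent quench of 5′-fluorescein pre-let-7 (2 nM) as 3′-rhodamine A20 probe anneals to poly(U) tails. Enzyme 0.2 nM Zcchc11 (res. 212-1420), LIN28A 10 nM, UTP 5 uM; pH 7.3 HEPES, 150 mM KCl, 5 mM MgCl2, RT. 4-parameter IC50; 100% = DMSO, 0% = no UTP.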
Take `O=C(O)c1cn(C2CC2)c2c(F)c(N3CCC[C@@H]3COc3cccnn3)c(F)cc2c1=O` [Example 29, (R)-1-cyclopropyl-6,8-difluoro-4-oxo-7-(2-((pyridazin-3-yloxy)methyl)pyrrolidin-1-yl)-1,4-dihydroquinoline-3-carboxylic acid]: the IC50 fell in the range of 1000 to 10000 nM.

The same assay, now with this note: Lin28a-dependent Zcchc11 (Z11) TUTase activity; read-out: Potency Lin28a-dep Z11 IC50.
Consider `O=C(O)c1cn(-c2ccc(F)cc2F)c2cc(N3CCC[C@@H]3COc3ccccn3)c(F)cc2c1=O` [Compound 84, (R)-1-(2,4-difluorophenyl)-6-fluoro-4-oxo-7-(2-((pyridin-2-yloxy)methyl)pyrrolidin-1-yl)-1,4-dihydro-quinoline-3-carboxylic acid], for which the IC50 is not above 1000 nM.
Take `COc1ccc(Cl)c(OC[C@H]2C[C@H]3C[C@H]3N2c2cc3c(cc2F)c(=O)c(C(=O)O)cn3-c2ccnc(N)c2)n1` [Compound 199, 1-(2-aminopyridin-4-yl)-7-((1R,3R,5R)-3-(((3-chloro-6-methoxy-pyridin-2-yl)oxy)methyl)-2-azabicyclo [3.1.0]hexan-2-yl)-6-fluoro-4-oxo-1,4-dihydro-quinoline-3-carboxylic acid]: the IC50 was not above 1000 nM.
On the same count and under the same terms, to `Cc1cccc(C)c1OC[C@H]1CCCN1c1cc2c(cc1F)c(=O)c(C(=O)O)cn2-c1ccc(O)cc1` [Compound 106, (R)-7-(2-((2,6-dimethyl-phenoxy)methyl)pyrrolidin-1-yl)-6-fluoro-1-(4-hydroxy-phenyl)-4-oxo-1,4-dihydro-quinoline-3-carboxylic acid] belongs more than 50000 nM.
As for `Cc1cccnc1OC[C@H]1CCCN1c1cc2c(cc1Cl)c(=O)c(C(=O)O)cn2-c1cnccn1` [Compound 212, 6-Chloro-7-[(2R)-2-{[(3-methylpyridin-2-yl)oxy]methyl}pyrrolidin-1-yl]-4-oxo-1-(pyrazin-2-yl)quinoline-3-carboxylic acid], the IC50 is not above 1000 nM.
In the case of `COc1cccc(-n2cc(C(=O)O)c(=O)c3cc(F)c(N4CCC[C@@H]4COc4ccccn4)cc32)c1` [Compound 146, (R)-6-fluoro-1-(3-methoxy-phenyl)-4-oxo-7-(2-((pyridin-2-yloxy)methyl)pyrrolidin-1-yl)-1,4-dihydro-quinoline-3-carboxylic acid], the IC50 is not above 1000 nM.
On the same count and under the same terms, to `Cc1cccnc1OC[C@H]1CCCN1c1cc2c(cc1F)c(=O)c(C(=O)O)cn2-c1ccc(N)nc1` [Compound 208, (R)-1-(6-aminopyridin-3-yl)-6-fluoro-7-(2-(((3-methylpyridin-2-yl)oxy)methyl)pyrrolidin-1-yl)-4-oxo-1,4-dihydro-quinoline-3-carboxylic acid] belongs not above 1000 nM; to `O=C(O)c1cn(-c2cnn(C3CNC3)c2)c2cc(N3CCC[C@@H]3COc3ncccc3Cl)c(Cl)cc2c1=O` [Compound 243, 1-[1-(azetidin-3-yl)pyrazol-4-yl]-6-chloro-7-[(2R)-2-[[(3-chloropyridin-2-yl)oxy]methyl]pyrrolidin-1-yl]-4-oxoquinoline-3-carboxylic acid], not above 1000 nM.

Staying with this assay, now noted: Lin28a-dependent Zcchc11 (Z11) TUTase assay; read-out: Potency Lin28a-dep Z11 IC50.
For `Cc1cccnc1OC[C@H]1CCCN1c1cc2c(cc1Cl)c(=O)c(C(=O)O)cn2C1(C)CCCC1` [Example 457, (R)-6-chloro-1-(1-methylcyclo-pentyl)-7-(2-(((3-methylpyridin-2-yl)oxy)methyl)pyrrolidin-1-yl)-4-oxo-1,4-dihydroquinoline-3-carboxylic acid], the IC50 is not above 1000 nM.
`COCCN(C)c1ccc(-n2cc(C(=O)O)c(=O)c3cc(Cl)c(N4CCC[C@@H]4COc4ncccc4Cl)cc32)cn1` [Example 420, (R)-6-chloro-7-(2-(((3-chloropyridin-2-yl)oxy)methyl)pyrrolidin-1-yl)-1-(6-((2-methoxy-ethyl)(methyl)amino)pyridin-3-yl)-4-oxo-1,4-dihydroquinoline-3-carboxylic acid]: the concentration for half-maximal inhibition (IC50) was not above 1000 nM.
The same measure, in the same setting: to `O=C(O)c1cn(-c2cccnc2)c2cc(N3CCC[C@@H]3COc3ncccc3Cl)c(Cl)cc2c1=O` [Example 489, (R)-6-chloro-7-(2-(((3-chloropyridin-2-yl)oxy)methyl)pyrrolidin-1-yl)-4-oxo-1-(pyridin-3-yl)-1,4-dihydroquinoline-3-carboxylic acid] belongs not above 1000 nM; to `O=C(O)c1cn(-c2ccc(N3CCCC3)nc2)c2cc(N3CCC[C@@H]3COc3ncccc3Cl)c(Cl)cc2c1=O` [Example 432, (R)-6-chloro-7-(2-(((3-chloropyridin-2-yl)oxy)methyl)pyrrolidin-1-yl)-4-oxo-1-(6-(pyrrolidin-1-yl)pyridin-3-yl)-1,4-dihydroquinoline-3-carboxylic acid], not above 1000 nM; to `O=C(O)c1cn(-c2ccc(O)cc2F)c2cc(N3CCC[C@@H]3COc3ccccn3)c(F)cc2c1=O` [Example 381, (R)-6-fluoro-1-(2-fluoro-4-hydroxyphenyl)-4-oxo-7-(2-((pyridin-2-yloxy)methyl)pyrrolidin-1-yl)-1,4-dihydroquinoline-3-carboxylic acid], 1000 to 10000 nM.
On the same count and under the same terms, to `O=C(O)c1cn(-c2cnc(O)cn2)c2cc(N3CCC[C@@H]3COc3ncccc3Cl)c(Cl)cc2c1=O` [Example 364, 6-Chloro-7-[(2R)-2-{[(3-chloropyridin-2-yl)oxy]methyl}pyrrolidin-1-yl]-1-(5-hydroxy-pyrazin-2-yl)-4-oxo-1,4-dihydroquinoline-3-carboxylic acid] belongs not above 1000 nM.
Same read-out and setting: to `N#Cc1cc2c(=O)c(C(=O)O)cn(-c3cnccn3)c2cc1N1CCC[C@@H]1COc1ncccc1Cl` [Example 538, (R)-7-(2-(((3-chloropyridin-2-yl)oxy)methyl)pyrrolidin-1-yl)-6-cyano-4-oxo-1-(pyrazin-2-yl)-1,4-dihydroquinoline-3-carboxylic acid] belongs not above 1000 nM; to `O=C(O)c1cn(-c2ccc(NS(=O)(=O)C3CC3)cc2)c2cc(N3CCC[C@@H]3COc3ncccc3Cl)c(Cl)cc2c1=O` [Example 472, 6-chloro-7-[(2R)-2-{[(3-chloropyridin-2-yl)oxy)methyl}pyrrolidin-1-yl]-1-(4-cyclopropane-sulfonamido-phenyl)-4-oxo-1,4-dihydroquinoline-3-carboxylic acid], not above 1000 nM; to `CN(C)C1CN(c2ccc(-n3cc(C(=O)O)c(=O)c4cc(C#N)c(N5CCC[C@@H]5COc5ncccc5Cl)cc43)cn2)C1` [Example 542, (R)-7-(2-(((3-chloropyridin-2-yl)oxy)methyl)pyrrolidin-1-yl)-6-cyano-1-(6-(3-(dimethylamino)azetidin-1-yl)pyridin-3-yl)-4-oxo-1,4-dihydroquinoline-3-carboxylic acid], not above 1000 nM.
For `CN(C)C1CN(c2ccc(-n3cc(C(=O)O)c(=O)c4cc(F)c(N5CCC[C@@H]5COc5ncccc5Cl)cc43)cn2)C1` [Example 510, (R)-7-(2-(((3-chloropyridin-2-yl)oxy)methyl)pyrrolidin-1-yl)-1-(6-(3-(dimethylamino)azetidin-1-yl)pyridin-3-yl)-6-fluoro-4-oxo-1,4-dihydroquinoline-3-carboxylic acid], the IC50 was not above 1000 nM.
Same read-out and setting: to `CN(C)C1CN(c2ccc(-n3cc(C(=O)O)c(=O)c4cc(Cl)c(N5CCC[C@@H]5CSc5ncccc5Cl)cc43)cn2)C1` [Example 596, (R)-6-chloro-7-(2-(((3-chloropyridin-2-yl)thio)methyl)pyrrolidin-1-yl)-1-(6-(3-(dimethylamino)azetidin-1-yl)pyridin-3-yl)-4-oxo-1,4-dihydroquinoline-3-carboxylic acid] belongs not above 1000 nM; to `CS(=O)(=O)Nc1cnc(-n2cc(C(=O)O)c(=O)c3cc(Cl)c(N4CCC[C@@H]4COc4ncccc4Cl)cc32)cn1` [Example 493, (R)-6-chloro-7-(2-(((3-chloropyridin-2-yl)oxy)methyl)pyrrolidin-1-yl)-1-(5-(methyl-sulfonamido)pyrazin-2-yl)-4-oxo-1,4-dihydroquinoline-3-carboxylic acid], not above 1000 nM.

The values above are taken from patent publication US12662491B2 (Redona Therapeutics, Inc., priority 2020, dated 2026).
